The source of these data is ChEMBL document CHEMBL1201862, “PubChem BioAssay data set” (2004).

In data set [1] the target is T1, Sentrin-specific protease 6 (Homo sapiens, UniProt Q9GZR1).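 Also: Luminescence-based dose-response confirmatory assay of SENP6 inhibition, following up an ultra-high-throughput screen.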
T1 sequence (Q9GZR1 whole entry): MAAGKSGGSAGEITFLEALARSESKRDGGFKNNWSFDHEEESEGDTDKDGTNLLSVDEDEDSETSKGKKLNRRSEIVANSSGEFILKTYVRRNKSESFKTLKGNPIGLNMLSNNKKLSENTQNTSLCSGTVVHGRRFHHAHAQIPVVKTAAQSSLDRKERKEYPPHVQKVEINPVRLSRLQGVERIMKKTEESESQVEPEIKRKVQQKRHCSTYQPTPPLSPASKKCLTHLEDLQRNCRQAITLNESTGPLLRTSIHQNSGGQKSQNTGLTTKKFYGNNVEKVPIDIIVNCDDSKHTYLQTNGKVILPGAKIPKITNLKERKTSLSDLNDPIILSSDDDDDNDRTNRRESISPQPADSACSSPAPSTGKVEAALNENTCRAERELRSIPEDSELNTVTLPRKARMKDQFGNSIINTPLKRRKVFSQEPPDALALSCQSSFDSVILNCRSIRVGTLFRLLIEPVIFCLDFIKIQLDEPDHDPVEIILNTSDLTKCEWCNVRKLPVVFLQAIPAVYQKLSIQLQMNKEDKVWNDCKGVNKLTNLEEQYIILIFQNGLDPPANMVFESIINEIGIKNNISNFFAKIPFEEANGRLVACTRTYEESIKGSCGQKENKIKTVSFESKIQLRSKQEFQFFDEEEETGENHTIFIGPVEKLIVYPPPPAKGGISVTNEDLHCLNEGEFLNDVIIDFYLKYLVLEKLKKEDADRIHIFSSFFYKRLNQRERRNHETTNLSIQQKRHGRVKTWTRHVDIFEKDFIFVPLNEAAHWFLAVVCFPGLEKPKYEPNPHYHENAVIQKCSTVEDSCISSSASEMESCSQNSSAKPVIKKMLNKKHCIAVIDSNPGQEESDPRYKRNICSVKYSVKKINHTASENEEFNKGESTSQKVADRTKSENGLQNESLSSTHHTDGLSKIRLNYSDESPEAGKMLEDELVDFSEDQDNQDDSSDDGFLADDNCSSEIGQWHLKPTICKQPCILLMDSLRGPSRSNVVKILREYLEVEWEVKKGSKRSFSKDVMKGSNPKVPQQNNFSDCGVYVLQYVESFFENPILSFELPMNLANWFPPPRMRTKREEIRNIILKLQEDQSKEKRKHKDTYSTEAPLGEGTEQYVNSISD
The class given is functional.

Data set [2] concerns the target T2, Sentrin-specific protease 7 (Homo sapiens, UniProt Q9BQF6).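 Also: Luminescence-based dose-response confirmation of ultra-high-throughput screening hits, measuring inhibition of SENP7.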
T2 sequence (Q9BQF6 whole entry): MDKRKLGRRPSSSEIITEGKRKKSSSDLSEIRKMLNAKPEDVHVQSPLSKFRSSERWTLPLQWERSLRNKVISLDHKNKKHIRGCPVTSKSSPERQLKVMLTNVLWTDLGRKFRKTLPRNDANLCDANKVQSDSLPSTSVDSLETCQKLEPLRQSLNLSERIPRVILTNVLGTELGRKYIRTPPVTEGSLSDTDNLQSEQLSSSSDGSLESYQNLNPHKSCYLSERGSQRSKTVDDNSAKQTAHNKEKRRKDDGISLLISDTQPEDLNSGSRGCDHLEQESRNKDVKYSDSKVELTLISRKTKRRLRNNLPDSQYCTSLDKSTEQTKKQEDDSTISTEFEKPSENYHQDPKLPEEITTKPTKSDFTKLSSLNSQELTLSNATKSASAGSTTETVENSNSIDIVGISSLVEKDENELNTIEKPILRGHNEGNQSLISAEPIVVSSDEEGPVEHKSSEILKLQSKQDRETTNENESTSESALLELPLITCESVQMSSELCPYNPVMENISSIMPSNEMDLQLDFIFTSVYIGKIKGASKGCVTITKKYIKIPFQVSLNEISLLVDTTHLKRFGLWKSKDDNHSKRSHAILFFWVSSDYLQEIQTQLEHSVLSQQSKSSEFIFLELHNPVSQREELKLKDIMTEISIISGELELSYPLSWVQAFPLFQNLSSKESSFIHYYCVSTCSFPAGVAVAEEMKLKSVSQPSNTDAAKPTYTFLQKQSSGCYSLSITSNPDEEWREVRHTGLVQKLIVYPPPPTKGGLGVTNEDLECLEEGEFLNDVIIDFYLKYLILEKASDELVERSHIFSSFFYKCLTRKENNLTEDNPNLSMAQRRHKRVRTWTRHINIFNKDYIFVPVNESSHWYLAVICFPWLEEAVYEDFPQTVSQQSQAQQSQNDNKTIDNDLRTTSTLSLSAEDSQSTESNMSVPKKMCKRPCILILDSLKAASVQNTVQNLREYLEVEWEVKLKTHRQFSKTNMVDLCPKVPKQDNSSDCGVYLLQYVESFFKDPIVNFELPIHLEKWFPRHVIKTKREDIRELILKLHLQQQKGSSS
It is filed as functional.

The target in data set [3] is T3, Sentrin-specific protease 8 (Homo sapiens, UniProt Q96LD8).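 Also: luminescence read-out of SENP8 inhibition, dose-response confirmation following an ultra-high-throughput screen.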
T3 sequence (Q96LD8 whole entry): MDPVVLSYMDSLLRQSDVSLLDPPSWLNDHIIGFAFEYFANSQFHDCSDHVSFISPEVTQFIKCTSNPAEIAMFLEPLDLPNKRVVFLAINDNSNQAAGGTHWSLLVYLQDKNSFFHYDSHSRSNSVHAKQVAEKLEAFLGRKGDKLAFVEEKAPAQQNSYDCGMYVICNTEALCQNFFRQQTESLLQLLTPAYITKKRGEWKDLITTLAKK
It is filed as functional.

Data set [4] deals with T4, Caspase-3 (Homo sapiens, UniProt P42574).
T4 sequence (P42574 whole entry): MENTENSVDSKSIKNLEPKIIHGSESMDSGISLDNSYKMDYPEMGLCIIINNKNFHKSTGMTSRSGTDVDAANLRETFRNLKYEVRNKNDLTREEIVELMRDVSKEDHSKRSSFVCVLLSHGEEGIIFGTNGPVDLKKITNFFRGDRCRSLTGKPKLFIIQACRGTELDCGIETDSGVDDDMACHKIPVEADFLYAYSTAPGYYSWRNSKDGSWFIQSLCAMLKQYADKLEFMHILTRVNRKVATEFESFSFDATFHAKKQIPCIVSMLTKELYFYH
The class given is functional.

Data set [5] addresses Ras and Rab interactor 1/Tyrosine-protein kinase ABL1 (Homo sapiens, UniProt P00519+Q13671). The class given is functional.
In data set [6] the test system is P388. The data set is described as follows: cells. It is filed as functional. As to conditions: Mus musculus.
The test system of data set [7] is P388/ADR. Nature of the data set: cells. It is filed as functional. Particulars: Mus musculus.
Data set [8] has as its system SN12K1. Nature of the data set: cells. As to conditions: Homo sapiens. It is filed as functional.
For data set [9], the target named is Protein Wnt-3a (Mus musculus, UniProt P27467). Nature of the data set: Wnt3a-driven reporter signaling inhibition, dose response, selectivity assay for Gli-SUFU antagonist project, Wnt-LIGHT cells, luminescence (AID 651570).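 Also: Wnt-LIGHT reporter cells stimulated with conditioned medium from Wnt3a-producing cells.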 It is filed as functional. As to conditions: read-out: IC50_Mean.
A short description of data set [10]: control 3'UTR Renilla luciferase suppression, dose response, counter-screen for Shn3 inhibitor project, cell-based, Clone20-Shn3RL, cherry-picked (AID 624133). The class given is functional.
The nature of data set [11]: Shn3 3'UTR reporter inhibitors, dose response, cell-based, Clone20 osteoblasts, firefly luciferase, cherry-picked (AID 624132).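 Also: firefly luciferase luminescence from reporter carrying the Shn3 3'UTR in osteoblasts.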 It is filed as functional.
Data set [12] in a line: HepG2 cell cytotoxicity, dose response, cytotoxicity control for Shn3 inhibitor project, CellTiter-Glo, cherry-picked (AID 624134). The class given is functional, cell-based. Background: ATP-based viability assays read luminescence as a measure of living cells.
The target in data set [13] is Cytochrome P450 2C9 (Homo sapiens, UniProt P11712).
The target in data set [14] is Cytochrome P450 3A4 (Homo sapiens, UniProt P08684).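 Also: CYP3A4 tested as one member of a cytochrome P450 panel screen.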
Data set [15] has as its target Cytochrome P450 2C19 (Homo sapiens, UniProt P33261). Nature of the data set: Cytochrome panel assay with activity outcomes. Panel member name: p450-cyp2c19 Compounds with AC50 equal or less than 10 uM are considered active. It is filed as functional.
Data set [16] concerns Vero. The data set is described as follows: cells. The class given is functional, Chlorocebus sabaeus. As to conditions: Chlorocebus sabaeus, Vero.
A short description of data set [17]: Luminescence Cell-Based Dose Retest to Confirm Inhibitors of Cancer Stem Cells. [Related pubchem assays (depositor defined):AID2717, AID2721]. As to conditions: Homo sapiens. It is filed as functional.
Data set [18] can be described thus: cytotoxicity in KRAS-transformed pancreatic duct cells, primary screen, cell-based, fluorescence, HTS (AID 431).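 Also: cell line used: HPDE-C7K.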 It is filed as functional. Particulars: Homo sapiens.
A short description of data set [19]: cytotoxicity in HPDE-C7 cells, cell-based, fluorescence, HTS (AID 430). The class given is functional. Particulars: Homo sapiens.
The target of data set [20] is Cytochrome P450 2D6 (Homo sapiens, UniProt P10635).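 Also: CYP2D6 member of a cytochrome P450 panel assay.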
Data set [21] deals with ADP-ribosylation factor GTPase-activating protein 1 (Rattus norvegicus, UniProt Q62848). The data set is described as follows: Fluorescence polarization-based biochemical high throughput dose response screening assay to identify inhibitors of ADP-ribosylation factor GTPase activating protein 1 (ARFGAP1). The class given is functional.

The source made the active and inactive calls.

Cytochrome P450 3A4, sequence (P08684 whole entry): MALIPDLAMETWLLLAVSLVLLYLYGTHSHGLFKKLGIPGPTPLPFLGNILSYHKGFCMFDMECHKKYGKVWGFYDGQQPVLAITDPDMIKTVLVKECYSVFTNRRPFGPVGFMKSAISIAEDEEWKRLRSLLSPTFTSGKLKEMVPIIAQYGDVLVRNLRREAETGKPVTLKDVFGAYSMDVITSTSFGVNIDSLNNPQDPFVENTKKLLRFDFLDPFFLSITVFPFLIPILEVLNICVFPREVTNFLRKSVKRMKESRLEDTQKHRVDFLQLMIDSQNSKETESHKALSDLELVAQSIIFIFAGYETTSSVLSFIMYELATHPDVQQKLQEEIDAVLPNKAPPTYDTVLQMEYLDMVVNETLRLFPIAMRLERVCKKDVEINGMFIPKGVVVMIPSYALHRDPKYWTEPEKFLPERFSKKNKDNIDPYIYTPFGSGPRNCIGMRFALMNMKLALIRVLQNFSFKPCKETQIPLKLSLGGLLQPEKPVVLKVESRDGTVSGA
Ras and Rab interactor 1/Tyrosine-protein kinase ABL1, sequence (P00519 whole entry): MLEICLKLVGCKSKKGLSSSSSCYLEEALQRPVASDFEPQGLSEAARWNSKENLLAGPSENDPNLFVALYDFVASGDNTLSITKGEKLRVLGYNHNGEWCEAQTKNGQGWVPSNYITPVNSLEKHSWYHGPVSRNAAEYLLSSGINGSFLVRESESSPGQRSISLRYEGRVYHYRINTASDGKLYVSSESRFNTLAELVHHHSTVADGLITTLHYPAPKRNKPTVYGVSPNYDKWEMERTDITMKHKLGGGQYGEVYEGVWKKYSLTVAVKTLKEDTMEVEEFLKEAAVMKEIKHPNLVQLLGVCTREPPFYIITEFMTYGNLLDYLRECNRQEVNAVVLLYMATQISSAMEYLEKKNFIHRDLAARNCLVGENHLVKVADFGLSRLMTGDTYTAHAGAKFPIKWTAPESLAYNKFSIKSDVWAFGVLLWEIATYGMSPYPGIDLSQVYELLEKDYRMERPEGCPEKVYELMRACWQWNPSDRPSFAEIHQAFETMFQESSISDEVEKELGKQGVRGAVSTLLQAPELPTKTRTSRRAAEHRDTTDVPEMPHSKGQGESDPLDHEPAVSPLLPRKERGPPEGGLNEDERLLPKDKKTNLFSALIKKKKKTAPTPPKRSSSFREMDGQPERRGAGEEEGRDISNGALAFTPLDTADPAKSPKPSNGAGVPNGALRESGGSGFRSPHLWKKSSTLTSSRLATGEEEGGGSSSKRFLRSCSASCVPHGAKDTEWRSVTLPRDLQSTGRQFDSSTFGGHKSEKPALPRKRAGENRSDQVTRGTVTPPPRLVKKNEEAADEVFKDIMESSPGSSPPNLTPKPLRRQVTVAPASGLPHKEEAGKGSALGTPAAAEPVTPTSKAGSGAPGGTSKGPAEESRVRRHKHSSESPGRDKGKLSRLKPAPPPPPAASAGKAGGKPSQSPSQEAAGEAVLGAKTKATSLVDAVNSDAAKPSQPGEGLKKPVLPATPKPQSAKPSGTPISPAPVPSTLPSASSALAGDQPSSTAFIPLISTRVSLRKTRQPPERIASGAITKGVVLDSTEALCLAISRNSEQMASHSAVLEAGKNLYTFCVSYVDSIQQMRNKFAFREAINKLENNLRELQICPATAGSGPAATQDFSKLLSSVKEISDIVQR
Ras and Rab interactor 1/Tyrosine-protein kinase ABL1, sequence (Q13671 whole entry): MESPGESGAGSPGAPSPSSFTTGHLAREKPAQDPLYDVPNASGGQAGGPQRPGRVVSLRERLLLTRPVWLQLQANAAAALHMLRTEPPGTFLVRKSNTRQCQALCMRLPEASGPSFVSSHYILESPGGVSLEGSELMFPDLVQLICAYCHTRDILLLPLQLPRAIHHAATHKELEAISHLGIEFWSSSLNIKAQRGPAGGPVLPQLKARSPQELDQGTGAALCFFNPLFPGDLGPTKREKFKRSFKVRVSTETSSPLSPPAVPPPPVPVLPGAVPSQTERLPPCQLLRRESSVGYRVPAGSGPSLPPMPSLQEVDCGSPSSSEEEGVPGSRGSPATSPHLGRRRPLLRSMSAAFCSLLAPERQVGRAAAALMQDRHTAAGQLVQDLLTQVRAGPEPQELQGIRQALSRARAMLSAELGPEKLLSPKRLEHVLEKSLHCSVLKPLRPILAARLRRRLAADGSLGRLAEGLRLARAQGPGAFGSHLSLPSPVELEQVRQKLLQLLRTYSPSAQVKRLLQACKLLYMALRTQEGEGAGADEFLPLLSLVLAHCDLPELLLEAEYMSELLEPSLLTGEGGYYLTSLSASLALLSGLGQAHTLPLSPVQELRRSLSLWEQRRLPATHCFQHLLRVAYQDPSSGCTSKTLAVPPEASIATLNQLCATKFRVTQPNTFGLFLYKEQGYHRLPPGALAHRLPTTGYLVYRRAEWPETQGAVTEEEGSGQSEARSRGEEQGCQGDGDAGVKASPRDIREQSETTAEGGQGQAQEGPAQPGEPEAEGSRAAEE
Protein Wnt-3a, sequence (P27467 whole entry): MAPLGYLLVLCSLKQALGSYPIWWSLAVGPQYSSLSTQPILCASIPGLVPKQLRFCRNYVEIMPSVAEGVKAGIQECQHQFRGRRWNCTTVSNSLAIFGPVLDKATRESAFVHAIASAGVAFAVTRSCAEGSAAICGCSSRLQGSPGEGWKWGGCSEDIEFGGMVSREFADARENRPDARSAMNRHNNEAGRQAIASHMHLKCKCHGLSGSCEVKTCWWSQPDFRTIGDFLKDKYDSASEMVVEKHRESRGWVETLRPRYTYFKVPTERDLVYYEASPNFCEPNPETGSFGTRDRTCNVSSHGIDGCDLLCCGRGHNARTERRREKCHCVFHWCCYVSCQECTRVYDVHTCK
Cytochrome P450 2C19, sequence (P33261 whole entry): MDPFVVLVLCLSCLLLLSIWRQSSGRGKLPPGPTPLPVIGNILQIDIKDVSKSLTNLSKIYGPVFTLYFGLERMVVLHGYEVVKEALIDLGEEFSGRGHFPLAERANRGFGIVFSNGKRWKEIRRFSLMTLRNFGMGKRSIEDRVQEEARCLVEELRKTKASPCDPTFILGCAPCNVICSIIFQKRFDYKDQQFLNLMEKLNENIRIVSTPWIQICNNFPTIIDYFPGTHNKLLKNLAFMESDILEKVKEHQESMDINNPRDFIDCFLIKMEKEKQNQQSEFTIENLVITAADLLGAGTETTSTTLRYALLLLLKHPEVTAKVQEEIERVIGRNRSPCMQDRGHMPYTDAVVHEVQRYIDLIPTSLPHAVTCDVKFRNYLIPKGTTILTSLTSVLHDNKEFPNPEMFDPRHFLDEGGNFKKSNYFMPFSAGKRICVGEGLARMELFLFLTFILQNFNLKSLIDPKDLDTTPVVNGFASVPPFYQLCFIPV
ADP-ribosylation factor GTPase-activating protein 1, sequence (Q62848 whole entry): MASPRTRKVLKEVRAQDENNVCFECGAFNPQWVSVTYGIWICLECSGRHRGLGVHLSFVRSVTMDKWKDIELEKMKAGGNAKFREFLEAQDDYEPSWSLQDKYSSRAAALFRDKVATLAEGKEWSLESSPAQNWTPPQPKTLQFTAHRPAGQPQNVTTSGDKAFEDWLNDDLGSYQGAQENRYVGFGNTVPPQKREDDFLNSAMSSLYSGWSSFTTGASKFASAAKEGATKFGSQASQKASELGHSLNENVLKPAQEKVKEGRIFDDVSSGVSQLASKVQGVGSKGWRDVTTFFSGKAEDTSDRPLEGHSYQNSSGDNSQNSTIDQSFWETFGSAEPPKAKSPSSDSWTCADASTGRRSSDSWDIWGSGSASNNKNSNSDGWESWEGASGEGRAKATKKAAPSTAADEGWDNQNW
Cytochrome P450 2C9, sequence (P11712 whole entry): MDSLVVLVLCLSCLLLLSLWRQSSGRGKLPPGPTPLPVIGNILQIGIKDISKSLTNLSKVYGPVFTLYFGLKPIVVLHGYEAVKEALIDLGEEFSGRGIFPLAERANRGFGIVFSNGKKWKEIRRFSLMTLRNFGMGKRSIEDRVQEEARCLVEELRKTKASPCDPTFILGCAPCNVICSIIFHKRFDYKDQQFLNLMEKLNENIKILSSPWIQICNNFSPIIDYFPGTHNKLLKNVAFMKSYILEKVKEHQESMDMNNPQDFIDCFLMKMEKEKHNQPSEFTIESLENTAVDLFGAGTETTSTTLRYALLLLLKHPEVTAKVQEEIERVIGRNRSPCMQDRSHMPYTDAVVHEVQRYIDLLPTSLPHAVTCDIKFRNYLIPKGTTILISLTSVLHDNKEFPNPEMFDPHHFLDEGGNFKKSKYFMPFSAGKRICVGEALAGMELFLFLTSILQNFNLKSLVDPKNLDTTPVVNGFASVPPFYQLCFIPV
Cytochrome P450 2D6, sequence (P10635 whole entry): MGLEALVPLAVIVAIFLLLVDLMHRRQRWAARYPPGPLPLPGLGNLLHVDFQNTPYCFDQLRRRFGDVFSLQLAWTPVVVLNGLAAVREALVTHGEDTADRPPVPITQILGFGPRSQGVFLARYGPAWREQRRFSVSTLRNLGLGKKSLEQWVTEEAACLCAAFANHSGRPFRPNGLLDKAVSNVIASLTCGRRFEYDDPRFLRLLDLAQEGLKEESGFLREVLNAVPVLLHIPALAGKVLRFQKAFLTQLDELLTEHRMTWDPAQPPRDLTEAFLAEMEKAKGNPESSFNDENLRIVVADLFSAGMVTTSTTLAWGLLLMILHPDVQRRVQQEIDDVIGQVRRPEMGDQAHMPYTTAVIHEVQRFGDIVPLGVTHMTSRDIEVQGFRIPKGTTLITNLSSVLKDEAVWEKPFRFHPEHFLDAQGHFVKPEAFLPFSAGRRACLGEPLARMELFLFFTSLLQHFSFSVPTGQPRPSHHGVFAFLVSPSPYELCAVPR

Consider `COc1cccc(-c2nc3ccc([N+](=O)[O-])cc3o2)c1`, for which the IC50 in data set [1] was > 100 µM (inactive); in data set [2], < 1.55 µM (active); in data set [3], > 100 µM (inactive); in data set [4] it was 2.52 µM (active).

On to `CSCCC(c1nnnn1C1CCCC1)N1CCC(n2c(O)nc3ccccc32)CC1` (stereo not drawn), for which the IC50 in data set [5] is 26.1 µM (inactive).

Regarding `N[C@@H](CSCSC[C@H](N)C(=O)O)C(=O)O`, the GI50 in data set [6] was > 71.1 µM (inactive); in [7], > 225 µM (inactive); in data set [8], > 225 µM (inactive).

As to `COc1ccc(-c2csc(NC(=O)c3ccco3)n2)cc1`, the IC50 in [1] was 28.5 µM (active); in data set [2] it was 8.46 µM (active); in data set [3], 41.3 µM (active); in data set [4], 31.1 µM (active).

On to `CCOCCOc1ccc(OCCOCC)cc1`, for which the GI50 in data set [6] was 3.36 µM (inactive); in [7], 1.45 µM (inactive); in [8] it was 15 µM (inactive).

In the case of `CSCC(CO)NC(=O)/C=C/c1c(C)[nH]c(=O)[nH]c1=O` (stereo not drawn), the GI50 in data set [6] was 818 µM (inactive); in data set [7], > 875 µM (inactive); in data set [8] it was 518 µM (inactive).

Consider `CC(C)=CC(=O)OC1C2C(C)=CC(O)C(O)C2(C)C2C3(O)OCC24C(CC(=O)OC14)C(C)C3O` (stereo not drawn), for which the GI50 in [6] was 0.0125 µM (active); in [7], 1.97 µM (inactive); in data set [8] it was 0.0259 µM (active).

For the molecule `CN(Cc1ccc(OCC(O)CN2CCCCC2)cc1)Cc1ccnc2ccccc12` (stereo not drawn), the IC50 in data set [9] was 3.4 µM (active). In addition, the AC50 was 1.37 µM (active) in data set [10], 1.21 µM (active) in data set [11] and 4.07 µM (active) in [12].

Turning to `CCCN(CCC)CCc1cccc2c1CC(=O)N2` [ROPINIROLE], the AC50 entry in data set [13], in data set [14] and in [15] was “inconclusive” throughout.

Turning to `COc1ccc(OC)c(Cc2cnc3nc(N)nc(N)c3c2C)c1` [PIRITREXIM ISETHIONATE], the IC50 in data set [9] was 3.35 µM (active). Moreover, the CC50 in [16] was 0.37 µM (active).

Take `Nc1cc(S(=O)(=O)O)cc2cc(S(=O)(=O)O)c(/N=N/c3ccc(-c4ccc(/N=N/c5c(S(=O)(=O)O)cc6cc(S(=O)(=O)O)cc(N)c6c5O)cc4)cc3)c(O)c12`: the GI50 in [6] and in data set [8] was > 100 µM (inactive) throughout.

Regarding `CCOC(=O)c1c(NC(=O)C(=O)N/N=C/c2ccccc2O)sc2c1CCCCC2`, in data set [9], the IC50 is 6.55 µM (active). In addition, the AC50 in data set [17] is 2.31 µM (active).

As to `Cc1nnc(SCc2nc3ccccc3[nH]2)s1`, the EC50 in data set [18] and in [19] was > 20 µM (not active) each time. Further, in data set [5], the IC50 was 15.2 µM (inactive).

On to `O=C(Nc1ccc(Cl)cc1)C1=Cc2ccccc2OC1`, for which the IC50 in [1] is 9.3 µM (active); in data set [2], 5.5 µM (active); in data set [3], 10.1 µM (active); in [4], 26.5 µM (active).

On to `C[N+](=N[N-]c1cccc([N+](=O)[O-])c1)c1ccccc1`, for which the IC50 in data set [1] was 33.7 µM (active); in [2], 6.72 µM (active); in data set [3] it was 36 µM (active); in data set [4] it was 29.7 µM (active).

As for `CC[C@]12c3[nH]c4ccc(Cl)cc4c3CCN1C(=O)[C@@H](CC(=O)NCCCN(C)C)C[C@@H]2C(=O)N1CCN(C(=O)c2ccco2)CC1`, the IC50 in data set [5] was 46.8 µM (inactive).

As to `Cc1ccc(NC(=O)COc2ccccc2C(N)=O)cc1S(=O)(=O)N1CCCCCC1`, the IC50 in data set [9] is 9.3 µM (active).

Consider `CCc1nc2cc(CC(=O)O)ccc2o1`, for which the AC50 entry in [14] and in data set [15] was “inconclusive” throughout.

`CO/N=C(/CNC(=O)c1ccc(Cl)cc1Cl)c1ccc(Cl)cc1`: the AC50 entry in data set [14] was “inconclusive”; in [20] it was 2 µM (inconclusive).

Turning to `O=C(O)c1ccc(CSc2nnc(-c3cccnc3)n2-c2ccc(Br)cc2)cc1`, the IC50 in data set [5] was 11.8 µM (inactive).

In the case of `COC(=O)c1ccc(Nc2nc(-c3ccncc3)nc3ccccc23)cc1`, in [21], the IC50 is 98.4 µM (inactive).

As a reminder, the GI50 is the concentration giving 50% growth inhibition. By AC50 is commonly meant the midpoint of the concentration-response curve, whichever way the signal moves. What is called CC50 is the concentration at which the toxic effect on the cells reaches its halfway point. In general, EC50 refers to the concentration that produces a half-maximal response. A higher EC50 goes with weaker potency.
